According to the kinase profiling compilation of Christmann-Franck et al. (2016):

Tests used:
Experiment in all cases: KINOMEscan competition binding
Details in all cases: compound 10.0 µM
MAPKAPK5 (human) = MAPKAPK5 (human) (UniProt Q8IW41)
MAPK6 (human) = MAPK6 (human) (UniProt Q16659)
STK4 (human) = STK4 (human) (UniProt Q13043)
NEK7 (human) = NEK7 (human) (UniProt Q8TDX7)
NTRK3 (human) = NTRK3 (human) (UniProt Q16288)
CDK15 (human) = CDK15 (human) (UniProt Q96Q40)
PKMYT1 (human) = PKMYT1 (human) (UniProt Q99640)
MAPK11 (human) = MAPK11 (human) (UniProt Q15759)
CDC42BPG (human) = CDC42BPG (human) (UniProt Q6DT37)
CDC42BPG (human), sequence (Q6DT37 whole entry, looked up): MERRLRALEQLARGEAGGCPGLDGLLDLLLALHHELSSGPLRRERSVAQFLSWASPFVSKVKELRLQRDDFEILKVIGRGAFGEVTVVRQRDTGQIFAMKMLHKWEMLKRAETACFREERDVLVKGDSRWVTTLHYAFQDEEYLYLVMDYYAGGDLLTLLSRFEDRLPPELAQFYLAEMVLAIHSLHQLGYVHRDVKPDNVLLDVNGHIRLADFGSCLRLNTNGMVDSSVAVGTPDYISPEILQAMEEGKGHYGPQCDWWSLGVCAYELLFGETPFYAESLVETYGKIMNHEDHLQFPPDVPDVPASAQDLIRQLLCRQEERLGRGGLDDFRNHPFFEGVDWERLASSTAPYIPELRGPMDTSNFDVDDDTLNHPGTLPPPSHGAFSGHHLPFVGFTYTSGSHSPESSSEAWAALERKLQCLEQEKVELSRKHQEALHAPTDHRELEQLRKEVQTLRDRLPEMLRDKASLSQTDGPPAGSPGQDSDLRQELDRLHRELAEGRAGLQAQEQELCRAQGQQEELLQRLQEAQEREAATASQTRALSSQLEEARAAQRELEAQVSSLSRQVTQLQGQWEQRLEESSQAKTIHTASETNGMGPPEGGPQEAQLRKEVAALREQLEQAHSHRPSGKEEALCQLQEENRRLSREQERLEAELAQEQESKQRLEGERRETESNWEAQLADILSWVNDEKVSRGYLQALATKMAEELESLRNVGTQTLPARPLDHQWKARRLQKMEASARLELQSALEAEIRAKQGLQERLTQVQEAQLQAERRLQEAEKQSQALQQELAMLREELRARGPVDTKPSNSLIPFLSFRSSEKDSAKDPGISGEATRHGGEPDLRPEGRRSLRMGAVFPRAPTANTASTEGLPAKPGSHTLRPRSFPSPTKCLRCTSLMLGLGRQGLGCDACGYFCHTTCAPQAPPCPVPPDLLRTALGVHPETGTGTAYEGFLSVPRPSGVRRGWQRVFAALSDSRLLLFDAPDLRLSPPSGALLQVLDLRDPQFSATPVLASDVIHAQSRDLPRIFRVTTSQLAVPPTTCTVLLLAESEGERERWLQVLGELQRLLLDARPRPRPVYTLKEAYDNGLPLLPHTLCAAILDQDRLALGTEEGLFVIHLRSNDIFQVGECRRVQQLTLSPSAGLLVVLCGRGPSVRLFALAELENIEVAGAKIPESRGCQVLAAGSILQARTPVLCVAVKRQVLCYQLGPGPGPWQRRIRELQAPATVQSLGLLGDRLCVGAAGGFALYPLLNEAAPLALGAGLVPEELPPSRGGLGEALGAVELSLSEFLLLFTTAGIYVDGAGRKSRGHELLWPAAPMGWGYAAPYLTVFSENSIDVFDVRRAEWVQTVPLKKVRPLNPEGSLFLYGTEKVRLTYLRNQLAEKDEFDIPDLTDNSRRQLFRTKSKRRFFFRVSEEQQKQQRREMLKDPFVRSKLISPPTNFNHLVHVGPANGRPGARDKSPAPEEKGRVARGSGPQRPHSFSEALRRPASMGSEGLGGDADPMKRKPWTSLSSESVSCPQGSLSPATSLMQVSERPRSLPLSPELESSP

CDC2L2 (human) = CDC2L2 (human) (UniProt Q9UQ88)
NTRK1 (human) = NTRK1 (human) (UniProt P04629)
CIT (human) = CIT (human) (UniProt O14578)
EGFR (human) = EGFR (human) (UniProt P00533)
MAPK15 (human) = MAPK15 (human) (UniProt Q8TD08)
ERBB3 (human) = ERBB3 (human) (UniProt P21860)
[1] = molecular target: JAK1 JH2 pseudokinase (human) (UniProt P23458)
JAK1 JH2 pseudokinase (human), sequence (P23458 whole entry, looked up): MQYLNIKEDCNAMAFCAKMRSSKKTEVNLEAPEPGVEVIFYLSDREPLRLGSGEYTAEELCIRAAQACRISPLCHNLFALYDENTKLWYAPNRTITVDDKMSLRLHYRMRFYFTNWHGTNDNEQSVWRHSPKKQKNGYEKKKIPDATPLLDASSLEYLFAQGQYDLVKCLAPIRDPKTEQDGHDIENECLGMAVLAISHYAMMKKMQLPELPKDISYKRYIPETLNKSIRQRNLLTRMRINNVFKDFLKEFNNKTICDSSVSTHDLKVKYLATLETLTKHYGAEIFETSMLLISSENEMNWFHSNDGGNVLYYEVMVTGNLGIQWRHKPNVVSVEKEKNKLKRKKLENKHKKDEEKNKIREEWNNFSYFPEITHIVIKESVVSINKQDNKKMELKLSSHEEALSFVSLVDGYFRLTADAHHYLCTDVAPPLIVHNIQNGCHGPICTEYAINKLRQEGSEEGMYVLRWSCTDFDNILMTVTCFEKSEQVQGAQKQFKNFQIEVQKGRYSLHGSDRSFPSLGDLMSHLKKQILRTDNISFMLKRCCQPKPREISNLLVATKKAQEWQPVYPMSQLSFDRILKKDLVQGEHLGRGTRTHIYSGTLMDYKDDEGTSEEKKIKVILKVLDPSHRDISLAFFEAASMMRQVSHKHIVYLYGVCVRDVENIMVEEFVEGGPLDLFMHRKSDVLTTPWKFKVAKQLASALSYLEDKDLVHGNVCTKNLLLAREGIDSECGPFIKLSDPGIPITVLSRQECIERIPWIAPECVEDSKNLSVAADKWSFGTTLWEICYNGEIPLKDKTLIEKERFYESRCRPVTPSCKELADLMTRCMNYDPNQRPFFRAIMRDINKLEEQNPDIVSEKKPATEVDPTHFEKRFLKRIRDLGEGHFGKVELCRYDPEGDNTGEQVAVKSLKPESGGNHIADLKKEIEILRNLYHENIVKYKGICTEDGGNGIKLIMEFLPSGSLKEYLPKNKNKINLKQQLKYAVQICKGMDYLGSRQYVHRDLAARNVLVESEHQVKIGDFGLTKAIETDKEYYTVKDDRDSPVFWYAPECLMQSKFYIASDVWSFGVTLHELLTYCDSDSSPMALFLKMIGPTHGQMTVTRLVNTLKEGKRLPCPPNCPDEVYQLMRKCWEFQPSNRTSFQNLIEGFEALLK

CDK7 (human) = CDK7 (human) (UniProt P50613)
CDK7 (human), sequence (P50613 whole entry, looked up): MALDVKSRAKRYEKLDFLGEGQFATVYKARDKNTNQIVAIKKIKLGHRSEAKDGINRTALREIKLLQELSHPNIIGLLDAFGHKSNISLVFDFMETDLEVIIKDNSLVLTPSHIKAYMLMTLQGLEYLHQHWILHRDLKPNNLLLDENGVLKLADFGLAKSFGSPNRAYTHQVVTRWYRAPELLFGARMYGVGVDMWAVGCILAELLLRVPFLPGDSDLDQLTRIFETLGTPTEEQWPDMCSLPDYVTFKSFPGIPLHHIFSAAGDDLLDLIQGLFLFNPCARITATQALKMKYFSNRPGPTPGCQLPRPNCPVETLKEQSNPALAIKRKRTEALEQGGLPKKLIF

STK17B (human) = STK17B (human) (UniProt O94768)
[2] = molecular target: JAK2 JH1 catalytic (human) (UniProt O60674)
RPS6KA1 KD1 (human) = RPS6KA1 KD1 (human) (UniProt Q15418)
RPS6KA1 KD1 (human), sequence (Q15418 whole entry, looked up): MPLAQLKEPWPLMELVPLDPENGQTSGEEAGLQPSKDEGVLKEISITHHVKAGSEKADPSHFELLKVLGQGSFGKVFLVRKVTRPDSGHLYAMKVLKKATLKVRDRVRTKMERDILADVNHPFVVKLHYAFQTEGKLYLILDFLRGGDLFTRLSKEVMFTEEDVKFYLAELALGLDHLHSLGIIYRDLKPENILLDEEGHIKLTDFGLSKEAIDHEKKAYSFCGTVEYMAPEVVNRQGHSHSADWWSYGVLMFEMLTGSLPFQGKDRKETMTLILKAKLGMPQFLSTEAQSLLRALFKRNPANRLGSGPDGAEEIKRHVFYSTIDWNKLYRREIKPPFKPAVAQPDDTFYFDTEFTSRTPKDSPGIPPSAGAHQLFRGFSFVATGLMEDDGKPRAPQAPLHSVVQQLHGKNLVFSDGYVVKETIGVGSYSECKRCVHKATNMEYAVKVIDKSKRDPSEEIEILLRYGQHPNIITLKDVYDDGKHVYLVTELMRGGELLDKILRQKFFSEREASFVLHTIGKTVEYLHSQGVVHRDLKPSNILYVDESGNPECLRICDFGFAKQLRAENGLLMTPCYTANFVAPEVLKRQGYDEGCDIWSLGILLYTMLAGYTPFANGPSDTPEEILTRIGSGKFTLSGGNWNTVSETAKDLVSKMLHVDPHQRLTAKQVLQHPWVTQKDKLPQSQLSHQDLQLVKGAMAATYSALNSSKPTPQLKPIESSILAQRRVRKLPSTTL

ALK (human) = ALK (human) (UniProt Q9UM73)
LTK (human) = LTK (human) (UniProt P29376)
RPS6KA5 KD2 (human) = RPS6KA5 KD2 (human) (UniProt O75582)
CSNK2A1 (human) = CSNK2A1 (human) (UniProt P68400)
ERBB4 (human) = ERBB4 (human) (UniProt Q15303)
[3] = test system: EGFR (human), P00533 [T790M]
MAPK3 (human) = MAPK3 (human) (UniProt P27361)
MAPK3 (human), sequence (P27361 whole entry, looked up): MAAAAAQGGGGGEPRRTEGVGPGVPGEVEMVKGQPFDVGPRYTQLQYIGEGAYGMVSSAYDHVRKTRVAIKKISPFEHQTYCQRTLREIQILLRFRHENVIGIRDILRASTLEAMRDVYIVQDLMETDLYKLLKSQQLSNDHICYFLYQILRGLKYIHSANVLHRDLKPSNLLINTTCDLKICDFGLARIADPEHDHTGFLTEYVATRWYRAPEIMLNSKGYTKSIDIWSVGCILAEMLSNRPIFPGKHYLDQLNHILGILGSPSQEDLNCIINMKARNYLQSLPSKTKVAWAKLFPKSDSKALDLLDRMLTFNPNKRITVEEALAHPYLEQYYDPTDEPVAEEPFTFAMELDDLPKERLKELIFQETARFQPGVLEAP

NEK6 (human) = NEK6 (human) (UniProt Q9HC98)
NEK6 (human), sequence (Q9HC98 whole entry, looked up): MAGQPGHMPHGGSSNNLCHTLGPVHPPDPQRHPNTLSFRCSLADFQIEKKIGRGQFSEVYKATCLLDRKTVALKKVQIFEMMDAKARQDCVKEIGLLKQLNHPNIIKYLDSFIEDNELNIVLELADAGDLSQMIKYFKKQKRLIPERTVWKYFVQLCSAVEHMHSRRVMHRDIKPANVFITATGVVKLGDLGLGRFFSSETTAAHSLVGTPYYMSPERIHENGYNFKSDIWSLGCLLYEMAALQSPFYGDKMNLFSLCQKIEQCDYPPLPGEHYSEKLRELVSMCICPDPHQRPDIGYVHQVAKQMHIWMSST

PLK2 (human) = PLK2 (human) (UniProt Q9NYY3)
RPS6KA4 KD1 (human) = RPS6KA4 KD1 (human) (UniProt O75676)
SYK (human) = SYK (human) (UniProt P43405)
PAK1 (human) = PAK1 (human) (UniProt Q13153)
CSNK2A2 (human) = CSNK2A2 (human) (UniProt P19784)
CSNK2A2 (human), sequence (P19784 whole entry, looked up): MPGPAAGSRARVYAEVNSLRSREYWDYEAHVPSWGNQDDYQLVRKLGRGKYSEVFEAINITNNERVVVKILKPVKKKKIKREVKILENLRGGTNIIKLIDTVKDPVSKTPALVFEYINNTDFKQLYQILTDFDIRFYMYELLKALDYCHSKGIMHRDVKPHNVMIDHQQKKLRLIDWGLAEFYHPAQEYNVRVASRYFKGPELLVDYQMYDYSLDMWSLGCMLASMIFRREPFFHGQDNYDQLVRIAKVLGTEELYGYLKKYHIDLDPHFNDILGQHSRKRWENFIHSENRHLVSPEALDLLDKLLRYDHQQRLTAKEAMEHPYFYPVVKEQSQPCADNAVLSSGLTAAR

FLT1 (human) = FLT1 (human) (UniProt P17948)
MAP3K11 (human) = MAP3K11 (human) (UniProt Q16584)

| Structure (SMILES) | kinase still bound, per cent of control (MAPKAPK5 (human)) [%] | kinase still bound, per cent of control (MAPK6 (human)) [%] | kinase still bound, per cent of control (STK4 (human)) [%] | kinase still bound, per cent of control (NEK7 (human)) [%] | kinase still bound, per cent of control (NTRK3 (human)) [%] | kinase still bound, per cent of control (CDK15 (human)) [%] | kinase still bound, per cent of control (PKMYT1 (human)) [%] | kinase still bound, per cent of control (MAPK11 (human)) [%] | kinase still bound, per cent of control (CDC42BPG (human)) [%] | kinase still bound, per cent of control (CDC2L2 (human)) [%] | kinase still bound, per cent of control (NTRK1 (human)) [%] | kinase still bound, per cent of control (CIT (human)) [%] | kinase still bound, per cent of control (EGFR (human)) [%] | kinase still bound, per cent of control (MAPK15 (human)) [%] | kinase still bound, per cent of control (ERBB3 (human)) [%] | kinase still bound, per cent of control [1] [%] | kinase still bound, per cent of control (CDK7 (human)) [%] | kinase still bound, per cent of control (STK17B (human)) [%] | kinase still bound, per cent of control [2] [%] | kinase still bound, per cent of control (RPS6KA1 KD1 (human)) [%] | other results |
| --- | --- | --- | --- | --- | --- | --- | --- | --- | --- | --- | --- | --- | --- | --- | --- | --- | --- | --- | --- | --- | --- |
| NC(=O)Nc1cc(-c2cccc(F)c2)sc1C(=O)N[C@@H]1CCCNC1 | 0.05 | 54 | 0.4 | 72 | 0.2 | 73 | 33 | 77 | 72 | 100 | 0 | 0.2 | 0.25 | 19 | 28 | 2.5 | 4.9 | 2 | 0 | 11 | kinase still bound, per cent of control (ALK (human)): 0.05%; kinase still bound, per cent of control (LTK (human)): 0.3%; kinase still bound, per cent of control (RPS6KA5 KD2 (human)): 9%; kinase still bound, per cent of control (CSNK2A1 (human)): 0.35%; kinase still bound, per cent of control (ERBB4 (human)): 4.4%; kinase still bound, per cent of control [3]: 0.05%; kinase still bound, per cent of control (MAPK3 (human)): 91%; kinase still bound, per cent of control (NEK6 (human)): 89%; kinase still bound, per cent of control (PLK2 (human)): 40%; kinase still bound, per cent of control (RPS6KA4 KD1 (human)): 0.2%; kinase still bound, per cent of control (SYK (human)): 0.05%; kinase still bound, per cent of control (PAK1 (human)): 1.2%; kinase still bound, per cent of control (CSNK2A2 (human)): 5.9%; kinase still bound, per cent of control (FLT1 (human)): 0.1% |
| O=c1cc(N2CCOCC2)oc2c(-c3cccc4c3sc3ccccc34)cccc12 | 100 | 100 | 98 | 100 | 74 | 85 | 92 | 90 | 100 | 100 | 81 | 85 | 94 | 100 | 72 | 72 | 100 | 100 | 67 | 100 | kinase still bound, per cent of control (ALK (human)): 100%; kinase still bound, per cent of control (LTK (human)): 93%; kinase still bound, per cent of control (RPS6KA5 KD2 (human)): 80%; kinase still bound, per cent of control (CSNK2A1 (human)): 74%; kinase still bound, per cent of control (ERBB4 (human)): 92%; kinase still bound, per cent of control [3]: 100%; kinase still bound, per cent of control (MAPK3 (human)): 100%; kinase still bound, per cent of control (MAP3K11 (human)): 97%; kinase still bound, per cent of control (NEK6 (human)): 100%; kinase still bound, per cent of control (PLK2 (human)): 100%; kinase still bound, per cent of control (RPS6KA4 KD1 (human)): 79%; kinase still bound, per cent of control (SYK (human)): 100%; kinase still bound, per cent of control (PAK1 (human)): 71%; kinase still bound, per cent of control (CSNK2A2 (human)): 100%; kinase still bound, per cent of control (FLT1 (human)): 97% |
